The source made the active and inactive calls.
What was measured:
[1] = molecular target: T1, E3 ubiquitin-protein ligase XIAP (Homo sapiens, UniProt P98170); assay: XIAP antagonists, biochemical, IAP family, fluorescence polarization (AID 1018); type: functional
[2] = molecular target: T1, E3 ubiquitin-protein ligase XIAP; assay: Counter Screen using XIAP-Bir3 for Chemical Antagonists of Bir1/2 domains of IAP-family anti-apoptotic proteins. [Related pubchem assays (depositor defined):AID1018, AID1449, AID1514, AID1638, AID1749, AID1750, AID488957, AID488963]
[3] = molecular target: T2, Orexin/Hypocretin receptor type 1 (Homo sapiens, UniProt O43613); assay: (§1) Fluorescence-based cell-based high throughput dose response assay for antagonists of the orexin 1 receptor (OX1R; HCRTR1). [Related pubchem assays (depositor defined):AID434989, AID435008, AID463079, AID485270, AID492963, AID492964, AID492965, AID493232, AID504717, AID504718]; type: functional
CHO-K1 = assay: (§2) Counterscreen for antagonists of the orexin 1 receptor (OX1R; HCRTR1): Homogeneous time resolved fluorescence (HTRF)-based cell-based dose response assay to identify antagonists of the parental CHO-K1 cell line. [Related pubchem assays (depositor defined):AID434989, AID435008, AID463079, AID485270, AID492963, AID492964, AID492965, AID493232, AID504699, AID504701]; type: functional; conditions: Cricetulus griseus
[4] = as §2, with “Fluorescence-based” for “Homogeneous time resolved fluorescence (HTRF)-based”, “cell-based high throughput” for “cell-based”, “CHO” for “CHO-K1”; type: functional
[5] = molecular target: T2, Orexin/Hypocretin receptor type 1; assay: as §1, with “Homogeneous Time Resolved Fluorescence (HTRF)-based” for “Fluorescence-based”; type: functional
[6] = HEp-2 cell cytotoxicity, dose response, cytotoxicity control for RSV inhibitor project, HTS (AID 2410); type: functional; conditions: human respiratory syncytial virus
[7] = molecular target: Potassium voltage-gated channel subfamily KQT member 2 (Rattus norvegicus, UniProt O88943, W236L); assay: KCNQ2 channel potentiators, dose response, mechanism study for KCNQ2 potentiator project, cell-based, automated electrophysiology (AID 2603); type: functional
[8] = molecular target: T3, Replicative DNA helicase DnaB (Mycobacterium tuberculosis, UniProt P9WMR3); assay: DnaB intein splicing inhibitors, dose response, biochemical, cell-free fluorescence (AID 449749); type: functional
T3 sequence (P9WMR3 whole entry): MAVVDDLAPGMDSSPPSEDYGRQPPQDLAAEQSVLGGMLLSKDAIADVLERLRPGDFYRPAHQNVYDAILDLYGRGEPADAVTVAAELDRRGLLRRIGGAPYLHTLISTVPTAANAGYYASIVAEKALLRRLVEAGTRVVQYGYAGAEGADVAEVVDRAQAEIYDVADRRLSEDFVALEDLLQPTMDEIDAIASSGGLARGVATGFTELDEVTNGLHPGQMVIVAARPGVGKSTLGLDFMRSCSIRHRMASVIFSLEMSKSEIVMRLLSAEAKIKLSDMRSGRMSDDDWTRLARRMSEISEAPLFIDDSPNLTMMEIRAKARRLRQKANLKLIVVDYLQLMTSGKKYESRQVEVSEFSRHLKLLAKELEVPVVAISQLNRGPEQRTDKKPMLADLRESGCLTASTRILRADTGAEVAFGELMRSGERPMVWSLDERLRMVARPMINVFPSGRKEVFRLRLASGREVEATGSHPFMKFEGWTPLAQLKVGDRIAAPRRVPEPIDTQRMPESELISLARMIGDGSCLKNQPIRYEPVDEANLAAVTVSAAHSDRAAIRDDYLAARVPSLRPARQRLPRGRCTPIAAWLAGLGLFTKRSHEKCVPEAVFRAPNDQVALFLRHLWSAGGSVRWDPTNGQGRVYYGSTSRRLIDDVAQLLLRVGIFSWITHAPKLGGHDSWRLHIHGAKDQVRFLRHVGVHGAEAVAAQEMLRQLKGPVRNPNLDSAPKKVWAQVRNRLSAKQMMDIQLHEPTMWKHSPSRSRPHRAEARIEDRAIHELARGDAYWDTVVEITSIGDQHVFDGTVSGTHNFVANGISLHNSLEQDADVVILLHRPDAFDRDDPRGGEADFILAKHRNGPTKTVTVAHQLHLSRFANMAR

Vero = Vero cell cytotoxicity, cytotoxicity control for flavivirus capping enzyme inhibitors (AID 588742); type: functional; conditions: Chlorocebus sabaeus
[9] = control 3'UTR Renilla luciferase suppression, dose response, counter-screen for Shn3 inhibitor project, cell-based, Clone20-Shn3RL, cherry-picked (AID 624133); type: functional
[10] = Shn3 3'UTR reporter inhibitors, dose response, cell-based, Clone20 osteoblasts, firefly luciferase, cherry-picked (AID 624132); type: functional;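 also: firefly luciferase luminescence from reporter carrying the Shn3 3'UTR in osteoblasts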
[11] = molecular target: Hepatocyte nuclear factor 4-alpha (Homo sapiens, UniProt P41235); type: functional, cell-based;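 also: biochemical luminescence-based dose-response counterscreen measuring inhibition of HNF4 dimerization, run alongside a screen for blockers of ABHD5–perilipin-5 interaction; split luciferase complementation of HNF4 fusion proteins in cell lysate measuring dimerization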
[12] = Intein inhibitors as potential Tuberculosis drugs, a cytotoxicity screen. [Related pubchem assays (depositor defined):AID2221, AID2223, AID434968, AID435010, AID449749, AID449750, AID489010]; type: functional
Protein RecA = molecular target: T4, Protein RecA (Mycobacterium tuberculosis, UniProt P9WHJ3); assay: Fluorescence Cell-Free Homogeneous Dose Retest to Identify Inhibitors of RecA-Intein Splicing Activity. [Related pubchem assays (depositor defined):AID2097, AID2223, AID489010, AID492950]; type: functional
T4 sequence (P9WHJ3 whole entry): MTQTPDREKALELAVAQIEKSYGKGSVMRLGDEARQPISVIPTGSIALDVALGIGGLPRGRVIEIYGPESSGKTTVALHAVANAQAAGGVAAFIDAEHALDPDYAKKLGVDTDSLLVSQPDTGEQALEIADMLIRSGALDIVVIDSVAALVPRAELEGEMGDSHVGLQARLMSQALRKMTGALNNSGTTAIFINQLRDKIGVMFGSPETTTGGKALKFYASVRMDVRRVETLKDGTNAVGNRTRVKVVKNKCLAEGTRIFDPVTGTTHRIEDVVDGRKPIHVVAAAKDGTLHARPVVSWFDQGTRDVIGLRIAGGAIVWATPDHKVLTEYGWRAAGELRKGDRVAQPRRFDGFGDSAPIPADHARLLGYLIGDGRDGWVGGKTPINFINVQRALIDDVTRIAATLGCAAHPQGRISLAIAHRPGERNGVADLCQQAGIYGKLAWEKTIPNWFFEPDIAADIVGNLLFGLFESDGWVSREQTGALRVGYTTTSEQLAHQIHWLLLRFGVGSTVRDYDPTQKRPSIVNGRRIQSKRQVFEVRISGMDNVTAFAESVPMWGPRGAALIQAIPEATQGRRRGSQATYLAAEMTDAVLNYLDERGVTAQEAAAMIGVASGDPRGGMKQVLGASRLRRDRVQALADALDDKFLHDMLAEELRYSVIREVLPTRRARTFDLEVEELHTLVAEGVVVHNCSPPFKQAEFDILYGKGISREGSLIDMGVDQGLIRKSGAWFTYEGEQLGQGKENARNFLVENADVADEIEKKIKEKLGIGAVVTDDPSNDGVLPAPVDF

Genome polyprotein = Genome polyprotein (dengue virus type 2, UniProt P29990); assay: Dengue-2 NS5 methyltransferase inhibitors, primary screen, biochemical, confirmation dose response (AID 588689); type: functional
Cytochrome P450 2D6 = Cytochrome P450 2D6 (Homo sapiens, UniProt P10635);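 also: CYP2D6 member of a cytochrome P450 panel assay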
Cytochrome P450 2C19 = Cytochrome P450 2C19 (Homo sapiens, UniProt P33261); assay: Cytochrome panel assay with activity outcomes. Panel member name: p450-cyp2c19 Compounds with AC50 equal or less than 10 uM are considered active; type: functional; conditions: read-out: AC50
Coagulation factor XII = molecular target: T5, Coagulation factor XII (Homo sapiens, UniProt P00748); assay: FXIIa inhibitor potency, concentration-response, biochemical (AID 716); type: functional
T5 sequence (P00748 whole entry): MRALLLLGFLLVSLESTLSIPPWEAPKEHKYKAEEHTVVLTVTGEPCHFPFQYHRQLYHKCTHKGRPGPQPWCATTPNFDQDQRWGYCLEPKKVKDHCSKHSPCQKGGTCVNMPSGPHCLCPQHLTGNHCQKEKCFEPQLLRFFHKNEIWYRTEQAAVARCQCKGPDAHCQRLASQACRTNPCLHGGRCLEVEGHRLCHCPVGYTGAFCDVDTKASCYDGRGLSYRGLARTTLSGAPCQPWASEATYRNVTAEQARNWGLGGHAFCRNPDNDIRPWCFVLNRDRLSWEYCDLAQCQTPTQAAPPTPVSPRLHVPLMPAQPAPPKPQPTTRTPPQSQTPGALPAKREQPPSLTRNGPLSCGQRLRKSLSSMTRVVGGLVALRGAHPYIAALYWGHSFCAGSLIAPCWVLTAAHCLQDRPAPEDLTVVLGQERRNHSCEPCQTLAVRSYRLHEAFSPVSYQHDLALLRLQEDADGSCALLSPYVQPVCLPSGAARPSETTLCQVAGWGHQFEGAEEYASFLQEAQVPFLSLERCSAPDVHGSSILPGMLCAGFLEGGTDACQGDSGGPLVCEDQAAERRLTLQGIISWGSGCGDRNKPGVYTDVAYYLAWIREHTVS

[13] = molecular target: T6, Corticotropin-releasing factor receptor 2/Corticotropin-releasing factor-binding protein (Homo sapiens, UniProt P24387+Q13324); assay: Dose Response confirmation of uHTS hits for small molecule antagonists of the CRF-binding protein and CRF-R2 receptor complex.; type: functional; conditions: read-out: IC50_Mean
T6 sequence (Q13324 whole entry): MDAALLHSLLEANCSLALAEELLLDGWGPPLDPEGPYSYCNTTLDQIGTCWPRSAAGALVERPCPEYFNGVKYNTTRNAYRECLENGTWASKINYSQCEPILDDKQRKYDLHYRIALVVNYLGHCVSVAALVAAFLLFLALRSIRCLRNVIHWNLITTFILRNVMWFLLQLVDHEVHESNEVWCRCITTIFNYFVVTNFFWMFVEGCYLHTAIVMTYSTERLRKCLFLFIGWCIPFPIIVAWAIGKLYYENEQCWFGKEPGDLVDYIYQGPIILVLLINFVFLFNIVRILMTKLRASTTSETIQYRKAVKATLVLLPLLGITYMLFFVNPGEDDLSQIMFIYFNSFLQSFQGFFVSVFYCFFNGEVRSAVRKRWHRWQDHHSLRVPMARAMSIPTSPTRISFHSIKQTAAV
T6 sequence (P24387 whole entry): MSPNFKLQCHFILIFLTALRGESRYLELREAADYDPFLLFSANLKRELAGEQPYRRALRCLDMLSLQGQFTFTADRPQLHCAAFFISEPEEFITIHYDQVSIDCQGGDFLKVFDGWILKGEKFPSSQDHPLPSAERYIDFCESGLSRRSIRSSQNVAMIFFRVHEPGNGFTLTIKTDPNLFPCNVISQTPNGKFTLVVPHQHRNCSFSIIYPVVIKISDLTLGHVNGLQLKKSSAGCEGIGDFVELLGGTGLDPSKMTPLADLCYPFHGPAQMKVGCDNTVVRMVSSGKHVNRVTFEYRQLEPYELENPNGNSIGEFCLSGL

[14] = CRF-BP/CRF-R2 complex antagonists, dose response, cell-based, uHTS hits, 384-well (AID 651639); type: functional, Homo sapiens; conditions: read-out: IC50_Mean
[15] = molecular target: T6, Corticotropin-releasing factor receptor 2/Corticotropin-releasing factor-binding protein; assay: activators of CRF receptor 2 with binding protein – uHTS hits, confirmation (AID 602473); type: functional; conditions: read-out: EC50_Mean
[16] = molecular target: Intestinal-type alkaline phosphatase (Homo sapiens, UniProt P09923); assay: human intestinal alkaline phosphatase activators, dose response, biochemical, luminescence, uHTS hits (AID 463120); type: functional
[17] = molecular target: T7, Runt-related transcription factor 1/Core-binding factor subunit beta (Homo sapiens, UniProt Q01196+Q13951); assay: inhibitors of RUNX1 Runt–CBFb-SMMHC binding, primary screen, biochemical, FRET, Cerulean-Runt, Venus-CBFb-SMMHC, uHTS (AID 1434); type: protein assay;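 also: partner is the CBFb-SMMHC leukemia fusion protein rather than wild-type CBFb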
[18] = molecular target: T7, Runt-related transcription factor 1/Core-binding factor subunit beta; assay: inhibitors of RUNX1 Runt–CBFb-SMMHC binding, biochemical, TR-FRET (AID 1438); type: protein assay

T2 sequence (O43613 whole entry): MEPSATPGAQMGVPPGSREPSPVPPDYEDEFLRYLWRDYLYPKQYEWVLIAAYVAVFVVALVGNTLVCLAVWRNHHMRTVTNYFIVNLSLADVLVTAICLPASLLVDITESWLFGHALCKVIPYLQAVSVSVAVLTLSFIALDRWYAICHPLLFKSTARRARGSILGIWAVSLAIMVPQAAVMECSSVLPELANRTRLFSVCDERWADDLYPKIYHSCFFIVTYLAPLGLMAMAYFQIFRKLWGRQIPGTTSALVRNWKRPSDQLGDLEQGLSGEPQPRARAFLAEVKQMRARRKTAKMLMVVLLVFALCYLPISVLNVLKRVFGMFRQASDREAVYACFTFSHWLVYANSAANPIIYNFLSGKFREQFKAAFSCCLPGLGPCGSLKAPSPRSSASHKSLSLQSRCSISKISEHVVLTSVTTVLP
T7 sequence (Q01196 whole entry, the tested form may be a part): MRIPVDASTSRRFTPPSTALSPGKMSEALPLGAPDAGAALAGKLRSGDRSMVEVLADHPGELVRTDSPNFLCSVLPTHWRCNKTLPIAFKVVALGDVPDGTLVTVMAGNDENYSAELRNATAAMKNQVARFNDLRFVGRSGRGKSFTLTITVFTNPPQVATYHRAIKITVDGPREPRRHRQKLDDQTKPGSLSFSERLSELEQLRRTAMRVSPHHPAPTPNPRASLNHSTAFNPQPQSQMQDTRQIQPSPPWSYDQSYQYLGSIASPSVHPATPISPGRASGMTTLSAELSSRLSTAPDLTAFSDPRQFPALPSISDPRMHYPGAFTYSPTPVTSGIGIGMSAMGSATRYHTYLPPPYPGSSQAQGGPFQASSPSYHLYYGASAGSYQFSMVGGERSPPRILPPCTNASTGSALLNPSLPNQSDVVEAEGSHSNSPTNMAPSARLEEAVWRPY
T7 sequence (Q13951 whole entry, the tested form may be a part): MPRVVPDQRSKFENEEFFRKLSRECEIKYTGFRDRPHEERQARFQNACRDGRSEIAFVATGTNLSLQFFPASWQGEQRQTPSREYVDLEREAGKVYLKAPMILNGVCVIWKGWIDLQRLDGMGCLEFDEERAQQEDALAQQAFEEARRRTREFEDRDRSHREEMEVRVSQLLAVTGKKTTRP
T1 sequence (P98170 whole entry): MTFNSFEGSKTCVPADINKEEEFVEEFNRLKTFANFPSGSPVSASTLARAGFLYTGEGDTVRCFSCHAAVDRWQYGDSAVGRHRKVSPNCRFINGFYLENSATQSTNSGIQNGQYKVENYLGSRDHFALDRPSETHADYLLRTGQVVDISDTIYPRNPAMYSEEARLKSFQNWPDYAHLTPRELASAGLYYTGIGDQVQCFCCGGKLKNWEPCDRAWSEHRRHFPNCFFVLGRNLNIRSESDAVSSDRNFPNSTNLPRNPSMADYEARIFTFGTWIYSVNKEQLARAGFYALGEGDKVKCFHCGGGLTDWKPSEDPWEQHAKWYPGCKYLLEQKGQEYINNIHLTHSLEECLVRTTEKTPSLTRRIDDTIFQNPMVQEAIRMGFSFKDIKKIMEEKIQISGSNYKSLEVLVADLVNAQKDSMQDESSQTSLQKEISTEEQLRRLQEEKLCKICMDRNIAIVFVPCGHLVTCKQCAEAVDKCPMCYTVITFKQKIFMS
Chain of Cytochrome P450 2C19 (P33261 whole entry): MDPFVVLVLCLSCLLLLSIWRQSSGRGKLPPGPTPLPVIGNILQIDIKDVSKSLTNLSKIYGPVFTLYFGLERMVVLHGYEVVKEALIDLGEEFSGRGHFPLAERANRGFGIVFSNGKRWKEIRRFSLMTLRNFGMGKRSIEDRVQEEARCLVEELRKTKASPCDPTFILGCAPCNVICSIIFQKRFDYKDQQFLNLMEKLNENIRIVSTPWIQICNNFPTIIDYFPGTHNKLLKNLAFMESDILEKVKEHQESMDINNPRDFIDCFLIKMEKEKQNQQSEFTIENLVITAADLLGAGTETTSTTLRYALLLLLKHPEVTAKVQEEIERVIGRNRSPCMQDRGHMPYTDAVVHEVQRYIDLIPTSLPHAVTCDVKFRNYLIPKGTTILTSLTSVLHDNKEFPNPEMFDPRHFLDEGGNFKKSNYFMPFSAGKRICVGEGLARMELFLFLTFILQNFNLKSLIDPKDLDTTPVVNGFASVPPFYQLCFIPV
Chain of Cytochrome P450 2D6 (P10635 whole entry): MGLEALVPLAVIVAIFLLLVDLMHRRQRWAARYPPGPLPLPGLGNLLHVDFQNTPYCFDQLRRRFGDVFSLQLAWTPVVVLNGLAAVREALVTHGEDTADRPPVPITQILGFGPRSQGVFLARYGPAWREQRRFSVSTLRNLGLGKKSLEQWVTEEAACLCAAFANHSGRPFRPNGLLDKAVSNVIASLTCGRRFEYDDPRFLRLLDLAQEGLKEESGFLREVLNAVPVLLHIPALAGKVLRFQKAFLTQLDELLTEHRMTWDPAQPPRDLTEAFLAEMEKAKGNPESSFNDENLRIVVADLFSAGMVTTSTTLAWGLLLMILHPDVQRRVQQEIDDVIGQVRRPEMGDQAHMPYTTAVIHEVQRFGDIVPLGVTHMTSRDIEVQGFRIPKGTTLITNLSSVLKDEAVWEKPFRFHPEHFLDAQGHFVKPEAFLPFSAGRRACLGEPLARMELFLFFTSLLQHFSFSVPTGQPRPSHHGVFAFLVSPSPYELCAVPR
Chain of Potassium voltage-gated channel subfamily KQT member 2 (O88943 whole entry W236L): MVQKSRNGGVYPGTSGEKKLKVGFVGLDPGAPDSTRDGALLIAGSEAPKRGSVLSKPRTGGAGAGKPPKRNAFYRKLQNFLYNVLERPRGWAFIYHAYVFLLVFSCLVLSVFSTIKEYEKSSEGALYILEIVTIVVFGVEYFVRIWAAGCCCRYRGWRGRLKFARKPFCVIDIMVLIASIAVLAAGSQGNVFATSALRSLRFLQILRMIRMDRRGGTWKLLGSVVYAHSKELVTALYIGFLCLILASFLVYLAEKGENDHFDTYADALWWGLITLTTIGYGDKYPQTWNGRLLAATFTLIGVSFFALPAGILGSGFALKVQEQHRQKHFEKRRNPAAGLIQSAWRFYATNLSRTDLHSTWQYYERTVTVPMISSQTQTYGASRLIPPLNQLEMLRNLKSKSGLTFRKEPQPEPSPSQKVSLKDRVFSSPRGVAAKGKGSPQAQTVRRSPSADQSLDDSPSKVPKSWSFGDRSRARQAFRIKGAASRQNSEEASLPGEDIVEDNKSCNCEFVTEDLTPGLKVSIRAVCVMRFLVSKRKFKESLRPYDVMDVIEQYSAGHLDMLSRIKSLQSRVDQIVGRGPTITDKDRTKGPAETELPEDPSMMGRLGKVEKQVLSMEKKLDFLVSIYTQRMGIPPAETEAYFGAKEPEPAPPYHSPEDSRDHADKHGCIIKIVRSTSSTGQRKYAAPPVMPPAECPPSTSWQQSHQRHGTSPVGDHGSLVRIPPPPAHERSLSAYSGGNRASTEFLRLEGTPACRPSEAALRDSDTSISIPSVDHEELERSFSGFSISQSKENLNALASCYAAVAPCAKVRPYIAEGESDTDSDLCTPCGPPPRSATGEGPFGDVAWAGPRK
Chain of Intestinal-type alkaline phosphatase (P09923 whole entry, the tested form may be a part): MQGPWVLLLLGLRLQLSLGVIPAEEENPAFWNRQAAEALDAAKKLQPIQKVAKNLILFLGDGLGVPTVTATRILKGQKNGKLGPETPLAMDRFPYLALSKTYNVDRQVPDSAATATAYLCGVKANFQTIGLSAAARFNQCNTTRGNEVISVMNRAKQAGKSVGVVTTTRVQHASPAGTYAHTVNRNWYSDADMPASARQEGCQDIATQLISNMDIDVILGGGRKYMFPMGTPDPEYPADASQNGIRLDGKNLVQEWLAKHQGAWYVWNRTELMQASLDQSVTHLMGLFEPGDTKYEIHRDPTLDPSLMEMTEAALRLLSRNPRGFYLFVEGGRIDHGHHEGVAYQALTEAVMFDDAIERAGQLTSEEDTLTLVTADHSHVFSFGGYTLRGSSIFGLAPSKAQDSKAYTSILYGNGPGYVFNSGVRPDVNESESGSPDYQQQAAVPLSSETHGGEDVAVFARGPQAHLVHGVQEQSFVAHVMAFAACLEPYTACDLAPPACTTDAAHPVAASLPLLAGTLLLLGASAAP
Chain of Genome polyprotein (P29990 2492-3391 limits assumed): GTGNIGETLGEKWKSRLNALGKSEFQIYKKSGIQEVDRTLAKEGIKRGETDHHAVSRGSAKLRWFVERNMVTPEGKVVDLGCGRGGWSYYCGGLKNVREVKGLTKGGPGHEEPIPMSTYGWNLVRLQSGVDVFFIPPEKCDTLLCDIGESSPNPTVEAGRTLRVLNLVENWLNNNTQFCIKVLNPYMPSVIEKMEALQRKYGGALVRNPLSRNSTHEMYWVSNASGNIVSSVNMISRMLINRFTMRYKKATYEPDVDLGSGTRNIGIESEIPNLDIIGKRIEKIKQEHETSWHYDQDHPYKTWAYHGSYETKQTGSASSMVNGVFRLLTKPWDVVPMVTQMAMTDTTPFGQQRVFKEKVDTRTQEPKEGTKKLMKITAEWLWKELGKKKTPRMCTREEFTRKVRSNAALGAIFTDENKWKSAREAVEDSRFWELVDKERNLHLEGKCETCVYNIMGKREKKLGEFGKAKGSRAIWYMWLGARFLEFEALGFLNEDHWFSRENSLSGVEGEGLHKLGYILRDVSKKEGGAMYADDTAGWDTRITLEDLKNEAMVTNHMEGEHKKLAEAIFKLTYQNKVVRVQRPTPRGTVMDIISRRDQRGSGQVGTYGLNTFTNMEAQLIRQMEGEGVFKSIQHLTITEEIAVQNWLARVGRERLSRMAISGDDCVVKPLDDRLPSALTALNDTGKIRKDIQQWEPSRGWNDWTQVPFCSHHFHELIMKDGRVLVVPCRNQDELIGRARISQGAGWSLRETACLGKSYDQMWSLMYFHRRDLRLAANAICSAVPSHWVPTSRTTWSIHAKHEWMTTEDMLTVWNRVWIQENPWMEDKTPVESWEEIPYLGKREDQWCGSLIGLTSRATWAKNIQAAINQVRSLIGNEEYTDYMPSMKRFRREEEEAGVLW

COc1ccc(NC(=O)N2CCC(c3nc(-c4cccs4)no3)CC2)cc1
IC50 [1]: > 100 µM (not active) | IC50 [2]: > 100 µM (inactive)

Cc1cc(C)cc(NC(=O)C2CCCN2S(=O)(=O)c2cccc3cccnc23)c1 (stereo not given)
IC50 [3]: 3.03 µM (active) | IC50 (CHO-K1): > 66.2 µM (inactive) | IC50 [4]: > 49.7 µM (inactive) | IC50 [5]: 244 nM (active) | CC50 [6]: 32.9 µM (active)

CSc1nnc(NC(=O)c2nc(S(=O)(=O)Cc3cccc(C)c3)ncc2Cl)s1
EC50 [7]: 1.83 µM (active) | AC50 [8]: 3.49 µM (active) | CC50 (Vero): 24.9 µM (active) | AC50 [9]: 11.5 µM (active) | AC50 [10]: 4.03 µM (active) | IC50 [11]: 4.45 µM (active) | CC50 [12]: 26.7 µM (active) | EC50 (Protein RecA): 3.16 µM (active) | IC50 (Genome polyprotein): 44.5 µM (active)

CCS(=O)(=O)N1CCC(C(=O)NCc2ccc(F)cc2Cl)CC1
AC50 (Cytochrome P450 2D6): 14.1 µM (inconclusive) | AC50 (Cytochrome P450 2C19): 39.8 µM (inconclusive) | IC50 (Coagulation factor XII): > 50 µM (inactive)

O=C(NNc1ncnc2c1cnn2-c1ccc(F)cc1)c1ccco1
IC50 [13]: < 368 nM (active) | IC50 [14]: > 20 µM (inactive) | EC50 [15]: > 53 µM (inactive) | EC50 [16]: 7.17 µM (active)

CN1c2ccsc2C(O)=C(C(S)=Nc2ccc(F)c(Cl)c2)S1(=O)=O
IC50 [17]: > 100 µM (inactive) | IC50 [18]: > 100 µM (inactive)

From ChEMBL document CHEMBL1201862, “PubChem BioAssay data set” (2004)
